{"source": "patent US20220000841A1", "about": "“INHIBITORS OF METALLO-BETA-LACTAMASES” (CENTRE NATIONAL DE LA RECHERCHE SCIENTIFIQUE, priority 2018, published 2022)", "key": {"[1]": {"target": "VIM-1 (Pseudomonas aeruginosa, UniProt A0A0F7KYQ8)", "assay": "Enzymatic assay for determination of inhibition constants, reporter substrate method, purified VIM-1;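 note: initial hydrolysis rates of a reporter β-lactam (imipenem, meropenem, cefotaxime or nitrocefin) followed by absorbance change, purified enzyme at 1–70 nM in 50 mM HEPES pH 7.5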", "assay_type": "biochemical", "conditions": "isolated MBL, competitive inhibition model", "description": "(§3) The reaction rate was measured as the variation of absorbance observed upon substrate hydrolysis in a UV-Vis spectrophotometer or microplate reader at a wavelength of 300 nm (imipenem, meropenem), 260 nm (cefotaxime) or 482 nm (nitrocefin) in 50 mM HEPES buffer (pH 7.5) and in the presence of a purified MBL enzyme (such as VIM-1, VIM-2, VIM-4, NDM-1 and IMP-1, at a final concentration ranging 1-70 nM).\n(§4) The inhibition constants (Ki) were determined on the basis of a model of competitive inhibition by analyzing the dependence of the ratio v0/vi (v0, hydrolysis velocity in the absence of inhibitor; vi, hydrolysis velocity in the presence of inhibitor) as a function of [I] as already described [Docquier J. D., Lamotte-Brasseur J., Galleni M., Amicosante G., Frère J. M., Rossolini G. M. (2003) J. Antimicrob. […] The slope of the plot of v0/vi vs [I], which corresponds to Km^S/(Km^S+[S])Ki (where Km^S is the Km value of the reporter substrate and [S] its concentration in the reaction mixture) and allowed the calculation of the Ki value. Alternatively, a Dixon plot analysis was carried out, by measuring the initial hydrolysis rates in the presence of variable concentrations of inhibitor and substrate."}, "[2]": {"target": "VIM-2 (Escherichia coli, UniProt Q5U7L7)", "assay": "Enzymatic assay for determination of inhibition constants, reporter substrate method, purified VIM-2;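 note: purified VIM-2 hydrolysing a reporter substrate (imipenem, meropenem, cefotaxime or nitrocefin), reaction rate read as absorbance change, HEPES 50 mM at pH 7.5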", "assay_type": "biochemical"}, "[3]": {"target": "VIM-4 (Pseudomonas aeruginosa, UniProt Q8KRJ3)", "assay": "Enzymatic assay for determination of inhibition constants, reporter substrate method, purified VIM-4;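 note: purified VIM-4 (1-70 nM) in 50 mM HEPES pH 7.5, reporter substrate hydrolysis rate tracked by absorbance change (nitrocefin 482 nm, imipenem or meropenem 300 nm, cefotaxime 260 nm)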", "assay_type": "biochemical", "conditions": "at 100 μM (maximal tested concentration)", "description": "as §3, §4"}, "[4]": {"target": "NDM-1 (Klebsiella pneumoniae, UniProt C7C422)", "sequence (C7C422 29-270, looked up, species assumed)": "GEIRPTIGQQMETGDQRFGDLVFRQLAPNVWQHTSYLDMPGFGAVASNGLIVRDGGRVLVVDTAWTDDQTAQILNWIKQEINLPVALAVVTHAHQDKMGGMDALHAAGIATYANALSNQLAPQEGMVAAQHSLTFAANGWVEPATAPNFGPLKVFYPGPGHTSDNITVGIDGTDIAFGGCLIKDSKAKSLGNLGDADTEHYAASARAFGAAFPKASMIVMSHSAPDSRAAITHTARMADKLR", "assay": "Enzymatic assay for determination of inhibition constants, reporter substrate method, purified NDM-1;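 note: purified enzyme activity followed as absorbance change from reporter substrate hydrolysis on a UV-Vis spectrophotometer or plate reader, 50 mM HEPES pH 7.5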", "assay_type": "biochemical", "conditions": "isolated MBL, competitive inhibition model", "description": "as §3, §4"}, "[5]": {"target": "IMP-1 (Serratia marcescens, UniProt P52699)", "sequence (P52699 19-246, looked up, species assumed)": "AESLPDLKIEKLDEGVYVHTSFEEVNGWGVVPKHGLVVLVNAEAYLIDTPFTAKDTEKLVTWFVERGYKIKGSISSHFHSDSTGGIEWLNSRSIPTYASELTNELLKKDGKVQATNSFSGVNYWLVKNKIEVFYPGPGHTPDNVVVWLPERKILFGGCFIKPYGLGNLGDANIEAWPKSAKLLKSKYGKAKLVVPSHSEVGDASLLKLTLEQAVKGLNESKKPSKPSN", "assay": "Enzymatic assay for determination of inhibition constants, reporter substrate method, purified IMP-1;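 note: purified IMP-1 (1-70 nM) hydrolysing a reporter substrate, initial rates followed as absorbance change at 260, 300 or 482 nm in 50 mM HEPES pH 7.5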", "assay_type": "biochemical", "conditions": "for Ki: isolated MBL, competitive inhibition model", "description": "as §3, §4"}, "[6]": {"system": "E. coli AS19 [pLBII-VIM2]", "assay": "microbe, parasite or virus in culture", "assay_type": "cell-based, Escherichia coli", "conditions": "for zone of inhibition at 40 µg/disc: Escherichia coli, read-out: Inhibition zone diameter AS 19, difference between measured diameter and diameter without compound", "method": "(§1) A] A disk-diffusion test in which the inhibitor was added (40-320 μg) to a disk containing a defined amount of a β-lactam antibiotic (such as 30 μg cefoxitin) was used to evaluate the antimicrobial activity (corresponding to the diameter of the growth inhibition zone, expressed in mm) of the combination when compared of that of the antibiotic alone.\n(§2) These tests were performed on isogenic laboratory strains (such as Escherichia coli DH5a or XL-1) producing a defined MBL after its transformation with a pLB-II plasmid derivative (such as pLBII-VIM-2) [Borgianni L., Vandenameele J., Matagne A., Bini L., Bonomo R. A., Frere J. M., Rossolini G. M., Docquier J. D. (2010) Antimicrob. Agents Chemother. 54, 3197-3204] harbouring a cloned gene encoding the functional metallo-β-lactamase. Alternatively, hyperpermeable strains (such as Escherichia coli AS19) were used instead of Escherichia coli DH5α or XL-1."}, "[7]": {"assay": "Cell membrane integrity assay, LDH release, compound cytotoxicity", "assay_type": "cell-based", "conditions": "human, HeLa cells, 0.001 to 1.2 mM, read-out: IC50, compound concentration inducing 50% cytotoxicity (LDH release)", "method": "Selected compounds were tested for their ability to induce the lysis of eukaryotic cells by measuring the release of lactate dehydrogenase enzyme (LDH) from HeLa cells, after incubating such cells for 24 hours (37° C., 5% CO2) in Dulbecco's modified Eagle medium supplemented with 10% fetal bovine serum, 4.5 mg/ml glucose and 2 mM L-glutamine in the absence and presence of the compound at concentrations ranging from 0.001 to 1.2 mM. LDH activity was determined using commercial kits (such as the CytoTox 96® Non-Radioactive Cytotoxicity Assay, Promega, Madison, Wis., U.S.A.) in the samples, containing HeLa cells incubated with the various concentrations of the assayed compound or with the solvent or buffer used to resuspend such compounds (vehicle control).\nFurther controls included samples containing the medium only (medium control) or in which cell lysis was induced by the addition of 9% Triton X-100 (maximum LDH release control). The percentage of cytotoxicity was computed as 100×(Sample LDH release)/(maximum LDH release). The variation of the percentage of cytotoxicity is usually dependent on the compound concentration and allowed to compute an IC50 value, corresponding to the compound concentration inducing 50% cytoxicity."}, "[8]": {"system": "K. pneumoniae SI-001 (blaVIM-1+)", "assay": "Broth microdilution MIC of meropenem in absence and presence of MBL inhibitor, SI-001", "assay_type": "cell-based", "conditions": "MBL inhibitor fixed at 32 μg/ml, Mueller-Hinton broth, duplicate", "description": "(§5) This method was performed in agreement with the CLSI recommendations (document M07-A10, 2015, “Methods for Dilution Antimicrobial Susceptibility Tests for Bacteria That Grow Aerobically”).\n(§6) MIC values of meropenem (MEM) were determined in duplicate in Mueller-Hinton broth as recommended by CLSI (document M07-A10, 2015), in absence and presence of a fixed concentration of MBL inhibitor (32 μg/ml)."}, "[9]": {"system": "K. pneumoniae S1-002 (blaVIM-4+)", "assay": "Broth microdilution MIC of meropenem in absence and presence of MBL inhibitor, S1-002", "assay_type": "cell-based", "conditions": "MBL inhibitor fixed at 32 μg/ml, Mueller-Hinton broth, duplicate", "description": "as §5, §6"}, "[10]": {"system": "E. coli LZ2310[pLBII-VIM2] (E. coli K12 ΔnorE ΔmdfA N43 acrA1)", "assay_type": "cell-based, Escherichia coli", "conditions": "EDTA 220 μg added to cefoxitin disk (30 μg); cefoxitin alone 14 mm", "method": "as §1, §2"}, "[11]": {"conditions": "as listed in Table 2, read-out: Ki on VIM-2"}, "[12]": {"conditions": "isolated MBL, competitive inhibition model, read-out: Ki VIM-2"}}, "note": "Like-named read-outs stand apart in the source and are kept apart here.", "data": [{"compound": "COc1ccc(O)c(-c2n[nH]c(=S)n2CCc2ccccc2C(=O)O)c1", "note": "[Compound 4, 2-{2-[3-(2-hydroxy-5-methoxyphenyl)-5-sulfanylidene-4,5-dihydro-1H-1,2,4-triazol-4-yl]ethyl}benzoic acid]", "values": [{"measurement": "Ki", "setting": "[1]", "result": "> 100", "unit": "µM"}, {"measurement": "Ki", "setting": "[2]; [11]", "result": "< 1", "unit": "µM"}, {"measurement": "Ki", "setting": "[2]; [12]", "result": "< 1", "unit": "µM"}, {"measurement": "% inhibition VIM-4", "setting": "[3]", "result": 80, "unit": "% at 100 μM"}, {"measurement": "Ki", "setting": "[4]", "result": "> 100", "unit": "µM"}, {"measurement": "Ki", "setting": "[5]", "result": "> 100", "unit": "µM"}, {"measurement": "zone of inhibition at 40 µg/disc", "setting": "[6]", "result": 4, "unit": "mm"}, {"measurement": "melting point", "result": "88 to 89", "unit": "°C"}]}, {"compound": "O=C(O)c1ccccc1CCn1c(-c2ccco2)n[nH]c1=S", "note": "[Compound 12, 2-{2-[3-(furan-2-yl)-5-sulfanylidene-4,5-dihydro-1H-1,2,4-triazol-4-yl]ethyl}benzoic acid]", "values": [{"measurement": "Ki", "setting": "[2]; [11]", "result": "< 1", "unit": "µM"}, {"measurement": "Ki", "setting": "[2]; [12]", "result": "< 1", "unit": "µM"}, {"measurement": "% inhibition VIM-4", "setting": "[3]", "result": 70, "unit": "% at 100 μM"}, {"measurement": "Ki", "setting": "[4]", "result": "> 100", "unit": "µM"}, {"measurement": "Ki", "setting": "[5]", "result": "> 100", "unit": "µM"}, {"measurement": "zone of inhibition at 40 µg/disc", "setting": "[6]", "result": 3, "unit": "mm"}, {"measurement": "IC50 at 24 h", "setting": "[7]", "result": "> 1200", "unit": "µM"}, {"measurement": "melting point", "result": "210 to 211", "unit": "°C"}]}, {"compound": "O=C(O)c1ccccc1CCn1c(-c2cccs2)n[nH]c1=S", "note": "[Compound 13, 2-{2-[3-(thiophen-2-yl)-5-sulfanylidene-4,5-dihydro-1H-1,2,4-triazol-4-yl]ethyl}benzoic acid]", "values": [{"measurement": "Ki", "setting": "[1]", "result": "> 100", "unit": "µM"}, {"measurement": "Ki", "setting": "[2]; [11]", "result": "1 to 10", "unit": "µM"}, {"measurement": "Ki", "setting": "[2]; [12]", "result": "1 to 10", "unit": "µM"}, {"measurement": "Ki", "setting": "[4]", "result": "> 100", "unit": "µM"}, {"measurement": "Ki", "setting": "[5]", "result": "> 100", "unit": "µM"}, {"measurement": "zone of inhibition at 40 µg/disc", "setting": "[6]", "result": 4, "unit": "mm"}, {"measurement": "IC50 at 24 h", "setting": "[7]", "result": "> 1200", "unit": "µM"}, {"measurement": "melting point", "result": "195 to 196", "unit": "°C"}]}, {"compound": "Cc1ccccc1-c1n[nH]c(=S)n1CCc1ccccc1C(=O)O", "note": "[Compound 14, 2-{2-[3-(2-methylphenyl)-5-sulfanylidene-4,5-dihydro-1H-1,2,4-triazol-4-yl]ethyl}benzoic acid]", "values": [{"measurement": "Ki", "setting": "[1]", "result": "1 to 10", "unit": "µM"}, {"measurement": "Ki", "setting": "[2]; [11]", "result": "< 1", "unit": "µM"}, {"measurement": "Ki", "setting": "[2]; [12]", "result": "< 1", "unit": "µM"}, {"measurement": "% inhibition VIM-4", "setting": "[3]", "result": 80, "unit": "% at 100 μM"}, {"measurement": "Ki", "setting": "[4]", "result": "> 100", "unit": "µM"}, {"measurement": "Ki", "setting": "[5]", "result": "> 100", "unit": "µM"}, {"measurement": "zone of inhibition at 40 µg/disc", "setting": "[6]", "result": 3, "unit": "mm"}, {"measurement": "IC50 at 24 h", "setting": "[7]", "result": "> 1200", "unit": "µM"}, {"measurement": "melting point", "result": "180 to 181", "unit": "°C"}]}, {"compound": "O=C(O)CCCCn1c(-c2ccccc2)n[nH]c1=S", "note": "[Compound 15, 5-(3-phenyl-5-sulfanylidene-4,5-dihydro-1H-1,2,4-triazol-4-yl)pentanoic acid]", "values": [{"measurement": "Ki", "setting": "[1]", "result": "> 100", "unit": "µM"}, {"measurement": "Ki", "setting": "[2]; [11]", "result": "1 to 10", "unit": "µM"}, {"measurement": "Ki", "setting": "[2]; [12]", "result": "1 to 10", "unit": "µM"}, {"measurement": "% inhibition VIM-4", "setting": "[3]", "result": 85, "unit": "% at 100 μM"}, {"measurement": "Ki", "setting": "[4]", "result": "> 100", "unit": "µM"}, {"measurement": "% inhibition IMP-1", "setting": "[5]; at 200 μM (maximal tested concentration)", "result": 60, "unit": "% at 200 μM"}, {"measurement": "zone of inhibition at 40 µg/disc", "setting": "[6]", "result": 3, "unit": "mm"}, {"measurement": "melting point", "result": "176 to 177", "unit": "°C"}]}, {"compound": "S=c1[nH]nc(-c2ccccc2)n1CCSCc1ccccc1", "note": "[Compound 33, 4-[2-(benzylsulfanyl)ethyl]-3-phenyl-4,5-dihydro-1H-1,2,4-triazole-5-thione]", "values": [{"measurement": "Ki", "setting": "[1]", "result": "< 1", "unit": "µM"}, {"measurement": "Ki", "setting": "[2]; [12]", "result": "1 to 10", "unit": "µM"}, {"measurement": "Ki", "setting": "[4]", "result": "1 to 10", "unit": "µM"}, {"measurement": "Ki", "setting": "[5]", "result": "> 100", "unit": "µM"}, {"measurement": "MIC potentiation of meropenem (x.log2 dilutions), K. pneumoniae SI-001 (blaVIM-1+)", "setting": "[8]", "result": 3, "unit": "log2 dilutions"}, {"measurement": "MIC potentiation of meropenem (x.log2 dilutions), K. pneumoniae S1-002 (blaVIM-4+)", "setting": "[9]", "result": 2, "unit": "log2 dilutions"}, {"measurement": "melting point", "result": "108 to 109", "unit": "°C"}]}, {"compound": "O=C(O)CN(CCN(CC(=O)O)CC(=O)O)CC(=O)O", "note": "[EDTA, reference compound]", "values": [{"measurement": "Inhibition zone diameter AS 19", "setting": "[6]; EDTA 220 μg added to cefoxitin disk (30 μg), cefoxitin alone 16 mm", "result": 26, "unit": "mm"}, {"measurement": "Inhibition zone diameter LZ 2310", "setting": "[10]", "result": 30, "unit": "mm"}]}]}
